Measurements published in patent US20070015688A1, “Method for screening for inhibitors of alzheimer's disease” (priority 2000, published 2007).

Test system: low-density lipoprotein (LDL)
Assay: LDL oxidation (lipid peroxidation) assay of Cu-metallated APP proteins
Type: biochemical
Details: for % of lipid peroxidation by control: Cu-metallated proteins, 0.5 mg/mL LDL, 24 hr, 37° C., control LDL in PBS alone = 100; for effect on lipid peroxidation (Cu-reducing) activity of the CuBD, in words: mutations incorporated into APP133-189
Description: Mutagenesis experiments were performed to test this. His147 and His151 were mutated to Asn, Tyr168 was mutated to Phe, and Met170 was mutated to Leu. These mutations were incorporated into APP133-189. Recombinant protein was expressed in Pichia pastoris as described above, and purified by standard chromatography methods. The identities of the purified proteins were verified by mass spectrometry. The Cu-reducing activity of the CuBD was tested in a lipid peroxidation assay.
Two different assays of metal mediated lipid peroxidation were utilized. The first assay involved measuring the oxidative activity of metallated proteins. This was determined by mixing dialyzed metallated or native protein at designated concentrations with 0.5 mg/mL low-density lipoprotein (LDL) for 24 hr (37° C.). Lipid peroxidation was measured using a lipid peroxidation assay kit (LPO 486, Oxis International Inc. Portland, Oreg.), as per kit instructions.
The control is LDL (0.5 mg/mL) in PBS buffer alone. […] APP133-189 induced strong lipid peroxidation (3-fold above background).

APP133-189: truncated version of the CuBD of APP, recombinant protein expressed in Pichia pastoris (CKFLHQERMDVCETHLHWHTVAKETCSEKSTNLHDYGMLLPCGIDKFRGVEFVCCPL; UniProt P05067 133-189, looked up, fragment)
% of lipid peroxidation by control: 312% | lipid peroxidation above background (background = APP28-123 negative control): 3 fold

His147Asn: APP133-189 with His147 mutated to Asn
% of lipid peroxidation by control: 87% | effect on lipid peroxidation (Cu-reducing) activity of the CuBD, in words: abolished this activity

His151Asn: APP133-189 with His151 mutated to Asn
% of lipid peroxidation by control: 196% | effect on lipid peroxidation (Cu-reducing) activity of the CuBD, in words: affected the activity, but to a lesser extent

Met170Leu: APP133-189 with Met170 mutated to Leu
% of lipid peroxidation by control: 142% | effect on lipid peroxidation (Cu-reducing) activity of the CuBD, in words: significant effect on the activity

Tyr168Phe: APP133-189 with Tyr168 mutated to Phe
% of lipid peroxidation by control: 111% | effect on lipid peroxidation (Cu-reducing) activity of the CuBD, in words: significant effect on the activity
